Experimental data reported in US20260124214A1, “HETEROCYCLIC COMPOUNDS FOR USE IN THE TREATMENT OF CANCER” (ARTIOS PHARMA LIMITED, priority 2021, published 2026).
Counter-ions that a name gives are not always drawn.

Biological target: T1, Human Polθ polymerase domain (aa1820-2590) (Homo sapiens, UniProt O75417)
T1 construct: Human Polθ polymerase domain (aa1820-2590) was expressed in E. Coli; made in house; host or cells: E. coli
T1 sequence (O75417 1820-2590): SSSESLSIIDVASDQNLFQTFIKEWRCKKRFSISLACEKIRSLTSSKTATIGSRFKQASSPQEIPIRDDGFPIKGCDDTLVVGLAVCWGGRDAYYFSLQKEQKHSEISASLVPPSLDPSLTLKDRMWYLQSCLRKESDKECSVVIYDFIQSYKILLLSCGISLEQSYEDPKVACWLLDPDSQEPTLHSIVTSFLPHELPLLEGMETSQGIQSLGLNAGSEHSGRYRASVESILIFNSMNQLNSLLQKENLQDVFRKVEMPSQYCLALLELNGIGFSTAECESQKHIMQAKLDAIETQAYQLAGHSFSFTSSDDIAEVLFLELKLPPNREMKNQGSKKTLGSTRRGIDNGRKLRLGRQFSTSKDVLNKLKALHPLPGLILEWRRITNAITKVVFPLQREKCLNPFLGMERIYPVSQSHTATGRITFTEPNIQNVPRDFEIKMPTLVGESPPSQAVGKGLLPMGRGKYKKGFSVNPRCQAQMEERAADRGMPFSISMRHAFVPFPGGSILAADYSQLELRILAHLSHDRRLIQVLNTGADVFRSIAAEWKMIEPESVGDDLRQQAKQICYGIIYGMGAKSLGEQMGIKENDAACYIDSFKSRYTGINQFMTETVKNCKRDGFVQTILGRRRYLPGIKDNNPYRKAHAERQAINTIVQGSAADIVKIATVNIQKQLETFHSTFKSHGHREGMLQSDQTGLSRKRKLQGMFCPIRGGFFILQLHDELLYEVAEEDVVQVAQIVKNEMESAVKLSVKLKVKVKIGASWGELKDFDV
Assay: Polθ Polymerase Domain WT KI Assay (PicoGreen)
Assay type: biochemical
Conditions: 100 nM DNA substrate, 0.156 nM Polθ, initial rates vs inhibitor concentration
Method: A PicoGreen assay was used to measure the KI values of reversible compounds that inhibit the activity of Polθ in vitro.
Human Polθ polymerase domain (aa1820-2590) was expressed in E. Coli, purified, aliquoted and stored at −80° C. until required. Polθ substrate was generated from a 1.2:1 mix of DNA II Short to DNA II Long to give a final concentration of […] substrate in annealing buffer (20 mM Tris pH 7.5, 50 mM NaCl). The substrate was heated in 50 mL aliquots to 95° C. in a heating block for 5 min before the heating block switched off, the reaction left to cool to rt and stored at −20° C. until required.
Assay measurements were performed with 1× buffer comprising 25 mM Tris pH 7.5, 12.5 mM NaCl, […], 5% (v/v) glycerol, 0.01% v/v Triton x-100, 0.1 mg/ml BSA, 1 mM DTT. […] 100 nL of 23×1:1.5-fold serial dilutions and a DMSO only control were dispensed using the Tecan dispenser into Greiner 384 well black low volume plates (product code 784076). DMSO concentration was maintained at 1% of the final assay volume by back filling with DMSO.
To stop the reaction, 5 μL of a solution containing 25 mM Tris-HCl PH 7.5 and 20 mM EDTA was added at […] (t=0, 15, 30, 60, 90, 120, 150, 180 mins) using the Tempest's time delay function. The plates were covered during the time course to prevent evaporation. After completing the assay, 5 μL of detection reagent (25 mM Tris-HCl pH 7.5 and 2.5% (v/v) PicoGreen) was dispensed into the wells using a Tempest liquid handler (Formulatrix) and plates subsequently read on the CLARIOstar Plus (BMG Labtech) using the default optical settings for fluorescein and the auto gain/focus settings.
All data analysis was carried out using GraphPad Prism V.8 (GraphPad Software Inc, San Diego, CA). Time course data for each inhibitor concentration were fitted to the linear regression model in GraphPad Prism. Any time points where the control (DMSO only) reaction was no longer linear were excluded from the analysis. The initial rates (slopes) obtained from the linear regression were then plotted against inhibitor concentration and fitted to an inhibitor vs. response variable slope (four parameter) model on GraphPad Prism to determine the KI values.

Ki | Structure (SMILES)
1.99 nM | Cc1cc(C(F)(F)F)cc(N2C(=O)C[C@@H]3CN(CC(C)O)c4c(Cl)cccc4N(C)C(=O)[C@H]32)n1 (mixture of isomers) [Example 131a, (3aR,11aS)-6-chloro-5-((S/R)-2-hydroxypropyl)-10-methyl-1-(6-methyl-4-(trifluoromethyl)pyridin-2-yl)-1,3a,4,5,10,11a-hexahydro-2H-benzo[b]pyrrolo[2,3-f][1,4]diazocine-2,11(3H)-dione]
1.22 nM | Cc1cc(C(F)(F)F)cc(N2C(=O)C[C@@H]3CN(CCN4CCN(C)[C@H](CO)C4)c4c(C)cccc4N(C)C(=O)[C@H]32)n1 [Example 15, (3aR,11aS)-5-(2-((S)-3-(Hydroxymethyl)-4-methylpiperazin-1-yl)ethyl)-6,10-dimethyl-1-(6-methyl-4-(trifluoromethyl)pyridin-2-yl)-1,3a,4,5,10,11a-hexahydro-2H-benzo[b]pyrrolo[2,3-f][1,4]diazocine-2,11(3H)-dione]
0.349 nM | Cc1cc(C(F)(F)F)cc(N2C(=O)C[C@@H]3CN(CCN4CCOCC4)c4c(C)cccc4N(C)C(=O)[C@H]32)n1 [Example 44, (3aR,11aS)-6,10-Dimethyl-1-(6-methyl-4-(trifluoromethyl)pyridin-2-yl)-5-(2-morpholinoethyl)-1,3a,4,5,10,11a-hexahydro-2H-benzo[b]pyrrolo[2,3-f][1,4]diazocine-2,11(3H)-dione]
1.33 nM | COCCN1CCN(CCN2C[C@H]3CC(=O)N(c4cc(C(F)(F)F)cc(C)n4)[C@@H]3C(=O)N(C)c3cccc(Cl)c32)CC1 [Example 27, (3aR,11aS)-6-Chloro-5-(2-(4-(2-methoxyethyl)piperazin-1-yl)ethyl)-10-methyl-1-(6-methyl-4-(trifluoromethyl)pyridin-2-yl)-1,3a,4,5,10,11a-hexahydro-2H-benzo[b]pyrrolo[2,3-f][1,4]diazocine-2,11(3H)-dione]
3.82 nM | Cc1cc(C(F)(F)F)cc(N2C(=O)C[C@@H]3CN(CCN4CCC(O)CC4)c4c(Cl)cccc4N(C)C(=O)[C@H]32)n1 [Example 34, (3aR,11aS)-6-Chloro-5-(2-(4-hydroxypiperidin-1-yl)ethyl)-10-methyl-1-(6-methyl-4-(trifluoromethyl)pyridin-2-yl)-1,3a,4,5,10,11a-hexahydro-2H-benzo[b]pyrrolo[2,3-f][1,4]diazocine-2,11(3H)-dione]
1.78 nM | Cc1cc(C(F)(F)F)cc(N2C(=O)C[C@@H]3CN(CCN4CCOC[C@H]4C)c4c(Cl)cccc4N(C)C(=O)[C@H]32)n1 [Example 24, (3aR,11aS)-6-Chloro-10-methyl-1-(6-methyl-4-(trifluoromethyl)pyridin-2-yl)-5-(2-((R)-3-methylmorpholino)ethyl)-1,3a,4,5,10,11a-hexahydro-2H-benzo[b]pyrrolo[2,3-f][1,4]diazocine-2,11(3H)-dione]
0.928 nM | Cc1cc(C(F)(F)F)cc(N2C(=O)C[C@@H]3CN(CCN4CCN(C(=O)[C@@H](C)O)CC4)c4c(C)cccc4N(C)C(=O)[C@H]32)n1 [Example 51, (3aR,11aS)-5-(2-(4-((R)-2-Hydroxypropanoyl)piperazin-1-yl)ethyl)-6,10-dimethyl-1-(6-methyl-4-(trifluoromethyl)pyridin-2-yl)-1,3a,4,5,10,11a-hexahydro-2H-benzo[b]pyrrolo[2,3-f][1,4]diazocine-2,11(3H)-dione hydrochloride]
0.381 nM | Cc1cc(C(F)(F)F)cc(N2C(=O)C[C@@H]3CN(CCN4CCN(C)[C@@H](C)C4)c4c(Cl)cccc4N(C)C(=O)[C@H]32)n1 [Example 30, (3aR,11aS)-6-Chloro-5-(2-((S)-3,4-dimethylpiperazin-1-yl)ethyl)-10-methyl-1-(6-methyl-4-(trifluoromethyl)pyridin-2-yl)-1,3a,4,5,10,11a-hexahydro-2H-benzo[b]pyrrolo[2,3-f][1,4]diazocine-2,11(3H)-dione]
3.7 nM | Cc1cc(C(F)(F)F)cc(N2C(=O)C[C@@H]3CN(Cc4cccnc4)c4c(Cl)cccc4N(C)C(=O)[C@H]32)n1 [Example 95, (3aR,11aS)-6-Chloro-10-methyl-1-(6-methyl-4-(trifluoromethyl)pyridin-2-yl)-5-(pyridin-3-ylmethyl)-1,3a,4,5,10,11a-hexahydro-2H-benzo[b]pyrrolo[2,3-f][1,4]diazocine-2,11(3H)-dione]
1.97 nM | Cc1cc(C(F)(F)F)cc(N2C(=O)C[C@@H]3CN(CCN4CCN(C5COC5)CC4)c4c(Cl)cccc4N(C)C(=O)[C@H]32)n1 [Example 28, (3aR,11aS)-6-Chloro-10-methyl-1-(6-methyl-4-(trifluoromethyl)pyridin-2-yl)-5-(2-(4-(oxetan-3-yl)piperazin-1-yl)ethyl)-1,3a,4,5,10,11a-hexahydro-2H-benzo[b]pyrrolo[2,3-f][1,4]diazocine-2,11(3H)-dione]
1.74 nM | Cc1cc(C(F)(F)F)cc(N2C(=O)C[C@@H]3CN(CCN4CCS(=O)(=O)CC4)c4c(Cl)cccc4N(C)C(=O)[C@H]32)n1 [Example 37, (3aR,11aS)-6-Chloro-5-(2-(1,1-dioxidothiomorpholino)ethyl)-10-methyl-1-(6-methyl-4-(trifluoromethyl)pyridin-2-yl)-1,3a,4,5,10,11a-hexahydro-2H-benzo[b]pyrrolo[2,3-f][1,4]diazocine-2,11(3H)-dione]
4.26 nM | Cc1cc(C(F)(F)F)cc(N2C(=O)C[C@@H]3CN(Cc4cccc(C5CN(C)C5)c4)c4c(F)cccc4N(C)C(=O)[C@H]32)n1 [Example 124, (3aR,11aS)-6-Fluoro-10-methyl-1-(6-methyl-4-(trifluoromethyl)pyridin-2-yl)-5-(3-(1-methylazetidin-3-yl)benzyl)-1,3a,4,5,10,11a-hexahydro-2H-benzo[b]pyrrolo[2,3-f][1,4]diazocine-2,11(3H)-dione]
28.8 nM | Cc1cc(C(F)(F)F)cc(N2C(=O)C[C@@H]3CN(c4ccc5ncn(C)c5c4)c4c(F)cccc4N(C)C(=O)[C@H]32)n1 [Example 144, (3aR,11aS)-6-Fluoro-10-methyl-5-(1-methyl-1H-benzo[d]imidazol-6-yl)-1-(6-methyl-4-(trifluoromethyl)pyridin-2-yl)-1,3a,4,5,10,11a-hexahydro-2H-benzo[b]pyrrolo[2,3-f][1,4]diazocine-2,11(3H)-dione]
0.651 nM | Cc1cc(C(F)(F)F)cc(N2C(=O)C[C@@H]3CN(CCN4C[C@@H](C)N[C@@H](C)C4)c4c(C)cccc4N(C)C(=O)[C@H]32)n1 (relative stereo) [Example 45, (3aR,11aS)-5-(2-(rel-(3R,5S)-3,5-Dimethylpiperazin-1-yl)ethyl)-6,10-dimethyl-1-(6-methyl-4-(trifluoromethyl)pyridin-2-yl)-1,3a,4,5,10,11a-hexahydro-2H-benzo[b]pyrrolo[2,3-f][1,4]diazocine-2,11(3H)-dione dihydrochloride]
1.48 nM | Cc1cc(C(F)(F)F)cc(N2C(=O)C[C@@H]3CN(CCN4CCC(F)(F)C4)c4c(Cl)cccc4N(C)C(=O)[C@H]32)n1 [Example 23, (3aR,11aS)-6-Chloro-5-(2-(3,3-difluoropyrrolidin-1-yl)ethyl)-10-methyl-1-(6-methyl-4-(trifluoromethyl)pyridin-2-yl)-1,3a,4,5,10,11a-hexahydro-2H-benzo[b]pyrrolo[2,3-f][1,4]diazocine-2,11(3H)-dione]
